Reference: patent US5389644A, “1,4-dihydropyridine compounds” (priority 1992, dated 1995)

Legend:
[1] = system: P 388/VCR; test: In vivo increase in antitumour activity of vincristine, resistant line P 388/VCR; set-up: species or system murine leukaemia in female B6D2F1 mice
From the text: This study was completed by an in vivo study, using a murine leukaemia resistant to vincristine (P 388/VCR) and using the compounds of the present invention in association with vincristine.
(§1) The sensitive parent line P 388 (murine leukaemia) and the sub-line resistant to vincristine, P 388/VCR, were supplied by NCI (Frederick, USA). The tumour cells (10^6 cells) were inoculated on day 0 into the indraperitoneal cavity of female B6D2F1 mice (Iffa Credo, France) weighing from 18 to 20 g (groups of 8 to 10 animals).
Every day for 4 days, starting from day 1, the animals received:
an administration of 25 to 150 mg/kg by i.p., p.o. or i.v. route of the compound of the present invention to be tested, as mentioned in the table 4a; then
(§2) 30 to 60 minutes later, an administration by the i.p. route of 0.25 mg/kg of vincristine (used as a reference antitumour agent).
(§3) The antitumour activity is expressed as follows: [formula]
(§4) The values are mean values obtained in independent experiments (# sem when n is greater than or equal to 3).

[2] = system: KB-A1; test: Cytotoxicity: reversal of resistance to adriamycin (reversion factor), line KB-A1; format: cell-based, Human
Procedure: (§5) The parameter measured is the cytotoxicity of the antitumour drug, quantified in the absence and in the presence of the reversing compound. […] The compounds tested for their capacity to reverse the resistance are added at the same time as the cytotoxic agent. The cells are then incubated for 4 days.

[3] = system: KB-A1; test: Flow cytometry: intracellular accumulation of ADR, line KB-A1; format: cell-based, Human; settings: ADR 50 μM, 5 hours
Procedure: Also measured was the effect of the compounds on the intracellular concentration of adriamycin. […] By measuring that fluorescence, it is thus possible to obtain a relative measurement of the intracellular concentration of ADR. […] The cells (5×10^5 per ml) were exposed simultaneously to ADR at a fixed concentration (50 μM) and to the tested compounds at various concentrations. After 5 hours' incubation, the intracellular accumulation of ADR was evaluated by FCM. […] The results were presented in the form of linear histograms of the intracellular ADR fluorescence. Expression of the results: for each of the histograms the mean fluorescence per channel (MEAN) was determined by the computer of the apparatus. For all experiments: a negative control (cells without ADR) fixed the autofluorescence threshold. a positive control (cells with ADR) determined the MEAN value=MN1. the "test" tubes (cells with ADR and with compound) were used to determine, for each of the compounds and at each of the concentrations, the MEAN values=MN2. The results are expressed in the form of variations from the mean fluorescence obtained for each of the "test" tubes (MN2) in relation to the mean fluorescence obtained with the positive control (MN1): VAR-MEAN=MN2-MN1. The measured parameter is thus the increase in ADR fluorescence in the presence of the tested compounds.

[4] = system: DC-3F/AD; test: Cytotoxicity: reversal of resistance to actinomycin D (reversion factor), line DC-3F/AD; format: cell-based, Chinese hamster
Procedure: as §5, with “compound. Two resistant cell lines were used: 1 Chinese hamster lung line, DC-3F/AD, the resistance of which was induced by actinomycin D.” for “compound.”

[5] = system: P 388; test: In vivo increase in antitumour activity of vincristine, sensitive line P388; set-up: species or system murine leukaemia in female B6D2F1 mice
Procedure: as §1
Every day for 4 days, starting from day 1, the animals received: […]
as §2, §3, §4
Using the sensitive line (P388) the tested compounds of the invention increase considerably the sensitivity of the cells to vincristine.

[6] = target: T1, calcium channel (Sus scrofa, UniProt A0A8W4FNC0); test: Affinity for the calcium channel labelled with [^3 ] PN 200110, aorta smooth muscle microsome preparations; format: binding; settings: pig aorta smooth muscle microsomes; means of three independent experiments
T1 construct: pig aorta smooth muscle microsome preparations; from tissue; host or cells: pig aorta smooth muscle microsomes
From the text: The results are expressed as IC50 (M) and represent means of three independent experiments.

[7] = VCR 0, compound 12.5 mg/kg p.o.
[8] = with VCR […] i.p., compound 12.5 mg/kg p.o.
[9] = with VCR […] i.p., compound 50 mg/kg i.p.
[10] = with VCR […] i.p., compound 150 mg/kg p.o.

T1 sequence (A0A8W4FNC0 1-2067): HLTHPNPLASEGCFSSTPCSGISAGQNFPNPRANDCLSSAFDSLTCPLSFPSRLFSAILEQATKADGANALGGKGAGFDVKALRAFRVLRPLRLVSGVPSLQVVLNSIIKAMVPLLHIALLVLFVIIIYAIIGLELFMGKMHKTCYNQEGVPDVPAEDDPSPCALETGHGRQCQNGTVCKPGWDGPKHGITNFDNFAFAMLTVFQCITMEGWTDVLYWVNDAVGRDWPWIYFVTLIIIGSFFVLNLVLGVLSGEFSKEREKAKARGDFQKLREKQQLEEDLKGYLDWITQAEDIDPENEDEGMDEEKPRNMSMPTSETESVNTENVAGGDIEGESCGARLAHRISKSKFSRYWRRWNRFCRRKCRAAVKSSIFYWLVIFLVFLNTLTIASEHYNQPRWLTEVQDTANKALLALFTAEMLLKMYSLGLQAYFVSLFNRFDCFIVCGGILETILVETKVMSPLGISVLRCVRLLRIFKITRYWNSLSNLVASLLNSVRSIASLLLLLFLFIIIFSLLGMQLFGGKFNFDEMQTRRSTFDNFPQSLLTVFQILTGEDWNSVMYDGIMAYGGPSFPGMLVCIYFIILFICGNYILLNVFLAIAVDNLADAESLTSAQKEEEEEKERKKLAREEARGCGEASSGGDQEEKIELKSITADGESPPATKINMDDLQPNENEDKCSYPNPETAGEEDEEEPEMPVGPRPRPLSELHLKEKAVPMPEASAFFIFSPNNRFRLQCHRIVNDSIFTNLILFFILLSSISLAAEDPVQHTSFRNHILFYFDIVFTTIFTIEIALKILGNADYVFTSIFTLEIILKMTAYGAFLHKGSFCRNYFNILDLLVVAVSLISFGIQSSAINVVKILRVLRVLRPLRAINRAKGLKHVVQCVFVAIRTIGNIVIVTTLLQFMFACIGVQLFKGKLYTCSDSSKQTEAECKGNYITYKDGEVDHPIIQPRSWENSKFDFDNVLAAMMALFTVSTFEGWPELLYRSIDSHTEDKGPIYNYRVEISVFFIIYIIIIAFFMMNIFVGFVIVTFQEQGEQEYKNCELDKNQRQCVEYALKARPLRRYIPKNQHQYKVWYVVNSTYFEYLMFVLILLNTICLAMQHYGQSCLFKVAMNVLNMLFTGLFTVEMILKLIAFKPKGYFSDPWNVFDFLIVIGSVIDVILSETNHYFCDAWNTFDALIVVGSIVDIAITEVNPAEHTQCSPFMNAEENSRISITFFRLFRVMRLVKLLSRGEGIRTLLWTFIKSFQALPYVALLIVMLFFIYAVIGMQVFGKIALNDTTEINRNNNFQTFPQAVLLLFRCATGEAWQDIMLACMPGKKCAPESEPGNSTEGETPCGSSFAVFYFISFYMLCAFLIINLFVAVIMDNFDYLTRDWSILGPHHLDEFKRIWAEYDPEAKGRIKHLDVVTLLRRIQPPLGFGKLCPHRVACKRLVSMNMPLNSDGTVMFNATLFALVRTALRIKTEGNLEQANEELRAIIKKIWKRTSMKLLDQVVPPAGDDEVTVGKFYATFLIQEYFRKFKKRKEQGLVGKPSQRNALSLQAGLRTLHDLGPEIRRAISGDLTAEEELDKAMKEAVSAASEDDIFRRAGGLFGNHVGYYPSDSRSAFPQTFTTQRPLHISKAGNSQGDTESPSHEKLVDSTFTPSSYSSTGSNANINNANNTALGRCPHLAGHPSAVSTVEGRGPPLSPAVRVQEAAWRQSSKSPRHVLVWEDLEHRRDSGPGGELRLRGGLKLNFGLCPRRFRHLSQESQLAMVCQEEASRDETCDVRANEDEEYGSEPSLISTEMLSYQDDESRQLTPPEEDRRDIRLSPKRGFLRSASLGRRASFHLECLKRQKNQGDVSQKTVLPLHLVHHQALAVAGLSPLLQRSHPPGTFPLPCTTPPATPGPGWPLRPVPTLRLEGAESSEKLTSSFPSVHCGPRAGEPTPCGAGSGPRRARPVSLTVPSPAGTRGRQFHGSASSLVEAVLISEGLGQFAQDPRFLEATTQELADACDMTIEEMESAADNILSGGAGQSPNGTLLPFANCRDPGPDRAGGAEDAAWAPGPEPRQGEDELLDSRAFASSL

SMILES	reversion factor (RF) ([2]; compound 1 μM)	reversion factor (RF) ([2]; compound 5 μM)	increase in the ADR fluorescence (VAR-MEAN) ([3]; compound 1 μM)	increase in the ADR fluorescence (VAR-MEAN) ([3]; compound 5 μM)	increase in the ADR fluorescence (VAR-MEAN) ([3]; compound […])	reversion factor (RF) ([4]; compound 1 μM)	reversion factor (RF) ([4]; compound 5 μM)	other results
CCOC(=O)C1=C(COCCOCCNCc2ccncc2)NC(C)=C(C(=O)OC)C1c1cccc(Cl)c1Cl (stereo not drawn) [Example 15, d-2-{[2-(2-(N-pyrid-4-ylmethylamino)ethoxy)ethoxy]methyl}-4-(2,3-dichlorophenyl)-3-ethoxycarbonyl-5-methoxycarbonyl-6-methyl-1,4-dihydropyridine]	12.1	281.9	7.0	38.6	16.1	301.4	6,510.3	T/C ([1]; VCR 0, compound 25 mg/kg i.p.): 109%; T/C ([1]; VCR 0, compound 25 mg/kg i.v.): 94%; T/C ([1]; VCR 0, compound 25 mg/kg p.o.): 112%; T/C ([1]; with VCR […] i.p., compound 25 mg/kg i.p.): 262%; T/C ([1]; with VCR […] i.p., compound 25 mg/kg i.v.): 186%; T/C ([1]; with VCR […] i.p., compound 25 mg/kg p.o.): 180%; Survivors on day 60 [5, 7]: 0/8; T/C [5, 7]: 101%; Survivors on day 60 [5, 8]: 3/8; T/C [5, 8]: 540%
CCOC(=O)C1=C(COCCOCCNCc2ccccc2F)NC(C)=C(C(=O)OC)C1c1cccc(Cl)c1Cl (stereo not drawn) [Example 6, d-2-{[2-(2-(N-o-fluorobenzylamino)ethoxy)ethoxy]methyl}-4-(2,3-dichlorophenyl)-3-ethoxycarbonyl-5-methoxycarbonyl-6-methyl-1,4-dihydropyridine]	15.2	159.1				9.6	4,340.9	
CCOC(=O)C1=C(COCCOCCNC2c3ccccc3CCc3ccccc32)NC(C)=C(C(=O)OC)C1c1cccc(Cl)c1Cl (stereo not drawn) [Example 28, d-2-{[2-(2-[N-dibenzo[a,d]cyclohept-5-ylamino)ethoxy)ethoxy]methyl}-4-(2,3-dichlorophenyl)-3-ethoxycarbonyl-5-methoxycarbonyl-6-methyl-1,4-dihydropyridine]						1.4	447.3	T/C ([1]; VCR 0, compound 50 mg/kg i.p.): 107%; T/C ([1]; VCR 0, compound 150 mg/kg p.o.): 99%; T/C [1, 9]: 180%; T/C [1, 10]: 207%
CCOC(=O)C1=C(COCCOCCNCc2cccs2)NC(C)=C(C(=O)OC)C1c1cccc(Cl)c1Cl (stereo not drawn) [Example 13, d-2-{[2-(2-(N-thien-2-ylmethylamino)ethoxy)ethoxy]methyl)-4-(2,3-dichlorophenyl)-3-ethoxycarbonyl-5-methoxycarbonyl-6-methyl-1,4-dihydropyridine]	12.3	165.1				19.4	4,141.7	
CCOC(=O)C1=C(COCCOCCNCc2ccc(SC)cc2)NC(C)=C(C(=O)OC)C1c1cccc(Cl)c1Cl (stereo not drawn) [Example 9, d-2-{[2-(2-(N-p-methylthiobenzylamino)ethoxy)ethoxy]methyl}-4-(2,3-dichlorophenyl)-3-ethoxycarbonyl-5-methoxycarbonyl-6-methyl-1,4-dihydropyridine]	2.4	99.0				1.2	560.3	
COC(=O)C1=C(C)NC(C)=C(C(=O)OC)C1c1ccccc1[N+](=O)[O-] [NIFEDIPINE, nifedipine, reference compound]			0.0	0.0	0.0			
CCOC(=O)C1=C(COCCOCCNCc2ccc(C#N)cc2)NC(C)=C(C(=O)OC)C1c1cccc(Cl)c1Cl (stereo not drawn) [Example 8, d-2-{[2-(2-(N-p-cyanobenzylamino)ethoxy)ethoxy]methyl}-4(2,3-dichlorophenyl)-3-ethoxycarbonyl-5-methoxycarbonyl-6-methyl-1,4-dihydropyridine]	6.9	136.0	2.0	24.2	9.4	11.4	1,319.9	Survivors on day 60 ([5]; VCR 0, compound 150 mg/kg p.o.): 0/8; T/C ([5]; VCR 0, compound 150 mg/kg p.o.): 106%; Survivors on day 60 [5, 10]: 2/8; T/C [5, 10]: 294%
CCOC(=O)C1=C(COCCOCCNCc2c[nH]c3ccccc23)NC(C)=C(C(=O)OC)C1c1cccc(Cl)c1Cl (stereo not drawn) [Example 22, d-2-{[2-(2-[N-(indol-3-yl)methylamino]ethoxy)ethoxy]methyl}-4-(2,3-dichlorophenyl)-3-ethoxycarbonyl-5-methoxycarbonyl-6-methyl-1,4-dihydropyridine]								IC50 [6]: 3.3 µM
CCOC(=O)C1=C(COCCOCCNCc2cccc(F)c2)NC(C)=C(C(=O)OC)C1c1cccc(Cl)c1Cl (stereo not drawn) [Example 5, d-2-{[2-(2-(N-m-fluorobenzylamino)ethoxy)ethoxy]methyl}-4-(2,3-dichlorophenyl)-3-ethoxycarbonyl-5-methoxycarbonyl-6-methyl-1,4-dihydropyridine]	13.2	225.8				7.6	3,567.0	
CCOC(=O)C1=C(COCCOCCNCCc2ccccn2)NC(C)=C(C(=O)OC)C1c1cccc(Cl)c1Cl (single isomer, unassigned) [Example 20, d-2-{2-[[2-(2-(N-pyrid-2-yl)ethylamino)ethoxy]ethoxy]methyl}-4-(2,3-dichlorophenyl)-3-ethoxycarbonyl-5-methoxycarbonyl-6-methyl-1,4-dihydropyridine]								IC50 [6]: 2.1 µM
CCOC(=O)C1=C(COCCOCCNCc2cccc([N+](=O)[O-])c2)NC(C)=C(C(=O)OC)C1c1cccc(Cl)c1Cl (stereo not drawn) [Example 2, d-2-{[2-(2-(N-m-nitrobenzylamino)ethoxy)ethoxy]methyl}-4-(2,3-dichlorophenyl)-3-ethoxycarbonyl-5-methoxycarbonyl-6-methyl-1,4-dihydropyridine]	2.2	389.5				1.5	1,478.2	
CCOC(=O)C1=C(COCCOCCNCc2cccc3ccccc23)NC(C)=C(C(=O)OC)C1c1cccc(Cl)c1Cl (stereo not drawn) [Example 11, d-2-{[2-(2-(N-naphth-1-ylmethylamino)ethoxy)ethoxy]methyl}-4-(2,3-dichlorophenyl)-3-ethoxycarbonyl-5-methoxycarbonyl-6-methyl-1,4-dihydropyridine]	1.7	336.0	0.2	31.0	18.2	1.0	2,442.4	T/C ([1]; VCR 0, compound 50 mg/kg i.p.): 100%; T/C ([1]; VCR 0, compound 150 mg/kg p.o.): 99%; T/C [1, 9]: 146%; T/C [1, 10]: 177%
CCOC(=O)C1=C(COCCOCCNCc2ccc(F)cc2)NC(C)=C(C(=O)OC)C1c1cccc(Cl)c1Cl (stereo not drawn) [Example 4, d-2-{[2-(2-(N-p-fluorobenzylamino)ethoxy)ethoxy]methyl}-4-(2,3-dichlorophenyl)-3-ethoxycarbonyl-5-methoxycarbonyl-6-methyl-1,4-dihydropyridine]	26.0	473.7	2.0	18.6	7.0	23.0	3,962.3	T/C ([1]; VCR 0, compound 50 mg/kg i.p.): 100%; T/C ([1]; VCR 0, compound 150 mg/kg p.o.): 110%; T/C [1, 9]: 176%; T/C [1, 10]: 181%
